# Key:
# Format in all cases: in vivo
# [1] = blind taste panel: which coffee tasted less bitter; settings: Coffee 2 = 0.5 grams of sodium gluconate added to a 200 g coffee; blind study, panel of 8 individuals; FIG. 1
# Procedure: The ability of a BMA to reduce the bitterness of a coffee product was investigated. Specifically, varying amounts of a BMA according to aspects described herein was added to coffee samples. In a blind study, a panel of 8 individuals were asked to determine which coffee tasted less bitter. […] Coffee 2 had 0.5 grams of sodium gluconate added to a 200 g coffee.
# In a blind study, a panel of 8 individuals were asked to determine which coffee tasted less bitter. […] Coffee 2 had 0.5 grams of sodium gluconate added to a 200 g coffee.
# [2] = trained-panel taste test of caffeine solutions with and without sodium gluconate (dose response)
# Procedure: The effect of sodium gluconate on bitterness as a dose response was investigated, In a blind study, six (6) trained panelists conducted a taste test with caffeine samples. […] Caffeine solutions with and without sodium gluconate were prepared on a w/v basis with deionized water. Products were dispensed into lidded soufflé cups with 3-digit codes and evaluated at 21° C. Products were evaluated in duplicate by 6 trained panelists for bitter taste amelioration following the study by Leksrisompong et al. (2012).
# [3] = blind tasting of chocolate chip cookies baked with sugar substitutes, with and without sodium gluconate; settings: ½ tsp of sodium gluconate for every cup of erythritol; 5 people, blind sampled
# From the text: The level of sodium gluconate on bitterness reduction in baked goods was investigated. Using a commercially available recipe of chocolate chip cookies, a batch of cookies were baked and blind sampled. The batches were baked using the recipe (i) 2 sticks unsalted butter, at room temperature; (ii) 1 cup erythritol or 1 cup monk fruit sugar substitute or ½ cup stevia sugar substitute; (iii) for samples with sodium gluconate, ½ tsp of sodium gluconate was used for every cup of erythritol; (iv) 1¼ egg; (v) 1⅓ cup almond flour; (vi) 2 tsp vanilla extract; (vii) 1¼ tsp sea salt; (viii) ½ tsp baking powder; (ix) ¼ tsp baking soda; and (x) 1 bag Lily's Sweets Semi-Sweet Chocolate Chips or Milk Chocolate Baking Chips. […] Five (5) people were brought in to compare batches with and without sodium gluconate.
structure (smiles),measurement,setting,value
O=C([O-])[C@H](O)[C@@H](O)[C@H](O)[C@H](O)CO.[Na+] [sodium gluconate],coffee sample chosen by the panel as less bitter,[1],"less bitter, smoother taste"
same,bitterness reduction of caffeine samples,"[2]; caffeine solutions w/v in deionized water, 21° C., 6 trained panelists in duplicate, 0 to 15 point Spectrum intensity scale, FIG. 2",significant bitterness reduction
same,nature of bitterness reduction as a function of masking agent dose,"[2]; percent bitterness vs masking agent dose, FIG. 3",linear
same,participants' preference between cookie batches with and without sodium gluconate,[3],All 5 participants preferred

# Reference: patent US20240065303A1, “BITTER MASKING AGENT” (SOLUGEN, INC., priority 2020, published 2024)
